Measured values from patent publication US20060009358A1, “Synergistically acting herbicidal mixtures” (priority 2002, published 2006).

Assays:
Experiment in all cases: Herbicidal action, post-emergence treatment, greenhouse (damage 0-100% vs untreated control)
Assay type in all cases: in vivo
Echinochloa crus-galli = conditions: Table 5, application rate 3.91 g/ha ai
Excerpt: (§1) The mixtures according to the invention were applied pre- or post-emergence (foliar treatment). The herbicidal compounds of component B and, if desired, of component C were applied in the formulation in which they are present as commercially available product.
(§2) The herbicidally active compounds of components A), B) and, if desired, C) were applied in succession or jointly, in the latter case in some cases as a tank mix and in some cases as a ready-mix, in the form of emulsions, aqueous solutions or-suspensions, the vehicle being water (300-400 l/ha). In the case of the field trials, application was effected with the aid of a mobile plot sprayer.
(§3) The test period extended over 3 to 8 weeks, and the stands were also observed at later points in time.
(§4) Damage by the herbicidal compositions was evaluated with reference to a scale of 0% to 100% in comparison with untreated control plots. 0 means no damage and 100 means complete destruction of the plants.
(§5) In these examples, the value E at which only an additive effect of the individual active ingredients is to be expected was calculated by the method of S. R. Colby (Calculating synergistic and antagonistic responses of herbicide combinations, Weeds 15, 20 pp (1967)).
(§6) This was done using the formula [formula] where • X=Percentage of the herbicidal action of component X) at an application rate of x; • Y=Percentage of the herbicidal action of component Y) at an application rate of y; • E=expected herbicidal action of component X)+Y) at rates of application x+y (in %).
(§7) If the value observed exceeds the value E calculated in accordance with Colby's formula, then synergism is present.

Galium aparine = test system: Galium aparine
Excerpt: as §1, §2, §3, §4, §5, §6, §7

Abutilon theophrasti = test system: Abutilon theophrasti
Excerpt: as §1, §2, §3, §4, §5, §6, §7

Brachiaria plantaginea = conditions: Table 8, application rate 125 g/ha ai
Excerpt: as §1, §2, §3, §4, §5, §6, §7

Polygonum persicaria = test system: Polygonum persicaria
Excerpt: as §1, §2, §3, §4, §5, §6, §7

Setaria faberi = test system: Setaria faberi
Excerpt: as §1, §2, §3, §4, §5, §6, §7

Pharbitis purpurea = conditions: Table 11, application rate 31.2 g/ha ai
Excerpt: as §1, §2, §3, §4, §5, §6, §7

[1] = Table 4, application rate 7.81 g/ha ai
[2] = Table 3, application rate 3.91 g/ha ai

SMILES: Cc1ccn2nc(S(=O)(=O)Nc3c(F)cccc3F)nc2n1 [IIa, flumetsulam]
- Echinochloa crus-galli Damage (Echinochloa crus-galli): 25%
- Galium aparine Damage (Galium aparine; [1]): 80%
- Abutilon theophrasti Damage (Abutilon theophrasti; [2]): 60%

SMILES: CCNc1nc(Cl)nc(NC(C)C)n1 [atrazine]
- Brachiaria plantaginea Damage (Brachiaria plantaginea): 25%
- Galium aparine Damage (Galium aparine; Table 9, application rate 125 g/ha ai): 60%
- Polygonum persicaria Damage (Polygonum persicaria; Table 10, application rate 62.5 g/ha ai): 40%
- Polygonum persicaria Damage (Polygonum persicaria; Table 12, application rate 31.2 g/ha ai): 30%
- Setaria faberi Damage (Setaria faberi; Table 11, application rate 31.2 g/ha ai): 30%
- Pharbitis purpurea Damage (Pharbitis purpurea): 60%
- Abutilon theophrasti Damage (Abutilon theophrasti; Table 8, application rate 125 g/ha ai): 30%

SMILES: O=C(O)c1nc(Cl)ccc1Cl [IIb, clopyralid]
- Setaria faberi Damage (Setaria faberi; Table 6, application rate 250 g/ha ai): 20%
- Setaria faberi Damage (Setaria faberi; Table 7, application rate 125 g/ha ai): 20%

SMILES: Cc1c(C(=O)c2cnn(C)c2O)ccc(S(C)(=O)=O)c1C1=NOCC1 [Ia.29, 4-[2-methyl-3-(4,5-dihydroisoxazol-3-yl)-4-methylsulfonyl-benzoyl]-1-methyl-5-hydroxy-1H-pyrazole]
- Galium aparine Damage (Galium aparine; [1]): 70%
- Abutilon theophrasti Damage (Abutilon theophrasti; [2]): 60%
